In PubChem BioAssay (NCI):
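Cells were grown in 96-well plates and exposed to each compound for 48 hours at five concentrations; endpoints were interpolated linearly between bracketing concentrations, or set to the highest concentration if not reached. The concentration for full growth arrest is given as TGI.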

Columns and labels:
Assay in all cases: DTP human tumour cell line panel, 48 h
OVCAR-4 ovarian = system: OVCAR-4 ovarian
MDA-MB-435 = system: MDA-MB-435
HCT-15 colon = system: HCT-15 colon
BT-549 breast = system: BT-549 breast
UO-31 renal = system: UO-31 renal
SK-MEL-28 melanoma = system: SK-MEL-28 melanoma
SR leukemia = system: SR leukemia
DU-145 prostate = system: DU-145 prostate
CAKI-1 renal = system: CAKI-1 renal
HS 578T breast = system: HS 578T breast
NCI-H460 lung = system: NCI-H460 lung
OVCAR-8 ovarian = system: OVCAR-8 ovarian
RXF 393 renal = system: RXF 393 renal
SF-539 CNS = system: SF-539 CNS
SNB-19 CNS = system: SNB-19 CNS
HCC-2998 colon = system: HCC-2998 colon
HOP-92 NSCLC = system: HOP-92 NSCLC
PC-3 prostate = system: PC-3 prostate
MCF7 breast = system: MCF7 breast
RPMI-8226 leukemia = system: RPMI-8226 leukemia
NCI-H522 lung = system: NCI-H522 lung
LOX IMVI melanoma = system: LOX IMVI melanoma
UACC-62 melanoma = system: UACC-62 melanoma
SNB-75 CNS = system: SNB-75 CNS
UACC-257 melanoma = system: UACC-257 melanoma
SW-620 colon = system: SW-620 colon
U251 CNS = system: U251 CNS
IGROV1 ovarian = system: IGROV1 ovarian
KM12 colon = system: KM12 colon
EKVX NSCLC = system: EKVX NSCLC
SK-MEL-2 melanoma = system: SK-MEL-2 melanoma
786-0 renal = system: 786-0 renal
HOP-62 NSCLC = system: HOP-62 NSCLC
TK-10 renal = system: TK-10 renal
K-562 leukemia = system: K-562 leukemia
SN12C renal = system: SN12C renal
SF-268 CNS = system: SF-268 CNS
MOLT-4 leukemia = system: MOLT-4 leukemia
SF-295 CNS = system: SF-295 CNS
MDA-MB-231 breast = system: MDA-MB-231 breast
M14 melanoma = system: M14 melanoma
HL-60(TB) leukemia = system: HL-60(TB) leukemia
CCRF-CEM leukemia = system: CCRF-CEM leukemia
NCI/ADR-RES ovarian = system: NCI/ADR-RES ovarian
A498 renal = system: A498 renal
MALME-3M melanoma = system: MALME-3M melanoma
HCT-116 colon = system: HCT-116 colon
HT29 colon = system: HT29 colon
SK-OV-3 ovarian = system: SK-OV-3 ovarian
A549 NSCLC = system: A549 NSCLC
NCI-H226 lung = system: NCI-H226 lung
NCI-H23 lung = system: NCI-H23 lung
ACHN renal = system: ACHN renal
SK-MEL-5 melanoma = system: SK-MEL-5 melanoma
OVCAR-3 ovarian = system: OVCAR-3 ovarian
OVCAR-5 ovarian = system: OVCAR-5 ovarian
T-47D breast = system: T-47D breast
MDA-N = system: MDA-N
COLO 205 colon = system: COLO 205 colon

## C[S+](C)CC(=O)c1ccc2c(c1)Sc1ccccc1O2
OVCAR-4 ovarian
  TGI: 15.4 µM
MDA-MB-435
  TGI: 10.1 µM
HCT-15 colon
  TGI: 13.2 µM
BT-549 breast
  TGI: 6.17 µM
UO-31 renal
  TGI: 12 µM
SK-MEL-28 melanoma
  TGI: 25.1 µM
SR leukemia
  TGI: > 50.9 µM
DU-145 prostate
  TGI: 11 µM
CAKI-1 renal
  TGI: 15 µM
HS 578T breast
  TGI: 22.1 µM
NCI-H460 lung
  TGI: 16.2 µM
OVCAR-8 ovarian
  TGI: 13.6 µM
RXF 393 renal
  TGI: 9.23 µM
SF-539 CNS
  TGI: 2.29 µM
SNB-19 CNS
  TGI: 17.1 µM
HCC-2998 colon
  TGI: 7.71 µM
HOP-92 NSCLC
  TGI: 21.5 µM
PC-3 prostate
  TGI: 4.03 µM
MCF7 breast
  TGI: 7.28 µM
RPMI-8226 leukemia
  TGI: > 39.2 µM
NCI-H522 lung
  TGI: 2.5 µM
LOX IMVI melanoma
  TGI: 20.9 µM
UACC-62 melanoma
  TGI: 9.38 µM
SNB-75 CNS
  TGI: 14.2 µM
UACC-257 melanoma
  TGI: 18.2 µM
SW-620 colon
  TGI: > 43.2 µM
U251 CNS
  TGI: 17.6 µM
IGROV1 ovarian
  TGI: 8.1 µM
KM12 colon
  TGI: 2.87 µM
EKVX NSCLC
  TGI: 14.4 µM
SK-MEL-2 melanoma
  TGI: 10 µM
786-0 renal
  TGI: 9.49 µM
HOP-62 NSCLC
  TGI: 28.4 µM
TK-10 renal
  TGI: 16.3 µM
K-562 leukemia
  TGI: > 100 µM
SN12C renal
  TGI: 36.3 µM
SF-268 CNS
  TGI: 14.6 µM
MOLT-4 leukemia
  TGI: > 94.4 µM
SF-295 CNS
  TGI: 16 µM
MDA-MB-231 breast
  TGI: 18.7 µM
M14 melanoma
  TGI: 3.48 µM
HL-60(TB) leukemia
  TGI: > 100 µM
CCRF-CEM leukemia
  TGI: > 100 µM
NCI/ADR-RES ovarian
  TGI: > 39.7 µM
A498 renal
  TGI: 26.9 µM
MALME-3M melanoma
  TGI: 12 µM
HCT-116 colon
  TGI: 7.32 µM
HT29 colon
  TGI: 9.15 µM
SK-OV-3 ovarian
  TGI: 19.6 µM
A549 NSCLC
  TGI: 18.1 µM
NCI-H226 lung
  TGI: 11.5 µM
NCI-H23 lung
  TGI: 14 µM
ACHN renal
  TGI: 16.1 µM
SK-MEL-5 melanoma
  TGI: 2.92 µM
OVCAR-3 ovarian
  TGI: 7.58 µM
OVCAR-5 ovarian
  TGI: 18.8 µM
T-47D breast
  TGI: > 44.4 µM

## COC(=O)C1ON2C(C1C(=O)OC)C(C)(C)N(O)C2(C)C (stereo not drawn)
OVCAR-4 ovarian
  TGI: > 10 µM
MDA-MB-435
  TGI: > 10 µM
HCT-15 colon
  TGI: > 10 µM
SK-MEL-28 melanoma
  TGI: > 10 µM
DU-145 prostate
  TGI: > 10 µM
CAKI-1 renal
  TGI: > 10 µM
OVCAR-8 ovarian
  TGI: > 10 µM
MDA-N
  TGI: > 10 µM
RXF 393 renal
  TGI: > 10 µM
SF-539 CNS
  TGI: > 10 µM
SNB-19 CNS
  TGI: > 10 µM
HOP-92 NSCLC
  TGI: > 10 µM
PC-3 prostate
  TGI: > 10 µM
SNB-75 CNS
  TGI: > 10 µM
COLO 205 colon
  TGI: > 10 µM
SW-620 colon
  TGI: > 10 µM
U251 CNS
  TGI: > 10 µM
IGROV1 ovarian
  TGI: > 10 µM
KM12 colon
  TGI: > 10 µM
EKVX NSCLC
  TGI: > 10 µM
TK-10 renal
  TGI: > 10 µM
SN12C renal
  TGI: > 10 µM
SF-268 CNS
  TGI: > 10 µM
SF-295 CNS
  TGI: > 10 µM
MDA-MB-231 breast
  TGI: > 10 µM
M14 melanoma
  TGI: > 10 µM
NCI/ADR-RES ovarian
  TGI: > 10 µM
HCT-116 colon
  TGI: > 10 µM
HT29 colon
  TGI: > 10 µM
A549 NSCLC
  TGI: > 10 µM
NCI-H226 lung
  TGI: > 10 µM
NCI-H23 lung
  TGI: > 10 µM
ACHN renal
  TGI: > 10 µM
SK-MEL-5 melanoma
  TGI: > 10 µM
OVCAR-3 ovarian
  TGI: > 10 µM
OVCAR-5 ovarian
  TGI: > 10 µM
